Reference: publication PMC10975748

Tests used:
[1] = system: anti-TTX monoclonal antibody; format: binding
[2] = analogues purified from pufferfish liver; patch clamp
[3] = system: isolated mouse phrenic-nerve-hemi-diaphragm muscle preparations; experiment: Nerve-evoked isometric contraction, reversal of CiTX neuromuscular block; conditions: 100 µM, in continuous presence of GYM-A, PnTX-A, PnTX-G or PteTX-1
[4] = target: T1, muscle-type α12βεδ nAChRs (Mus musculus, UniProt P02716+P04756+P20782); experiment: Nerve-evoked isometric contraction, block by cyclic imine toxins
T1 construct: skeletal muscle expressing α12βεδ nAChRs; from tissue; host or cells: isolated mouse phrenic-nerve-hemi-diaphragm muscle
T1 sequence (P09690 24-501): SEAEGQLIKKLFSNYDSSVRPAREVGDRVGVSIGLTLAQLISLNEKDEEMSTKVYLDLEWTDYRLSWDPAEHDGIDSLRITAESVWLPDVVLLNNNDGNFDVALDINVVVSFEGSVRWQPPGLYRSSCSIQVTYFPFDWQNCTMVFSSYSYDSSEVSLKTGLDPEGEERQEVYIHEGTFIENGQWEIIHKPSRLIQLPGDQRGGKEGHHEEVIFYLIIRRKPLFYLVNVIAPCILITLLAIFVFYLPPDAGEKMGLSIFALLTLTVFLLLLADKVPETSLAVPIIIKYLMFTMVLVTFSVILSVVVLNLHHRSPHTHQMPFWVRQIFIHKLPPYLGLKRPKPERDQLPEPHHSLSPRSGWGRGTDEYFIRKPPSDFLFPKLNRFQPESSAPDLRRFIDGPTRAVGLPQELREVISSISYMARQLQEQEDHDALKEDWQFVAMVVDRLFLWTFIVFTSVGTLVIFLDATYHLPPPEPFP
T1 sequence (P02716 25-520): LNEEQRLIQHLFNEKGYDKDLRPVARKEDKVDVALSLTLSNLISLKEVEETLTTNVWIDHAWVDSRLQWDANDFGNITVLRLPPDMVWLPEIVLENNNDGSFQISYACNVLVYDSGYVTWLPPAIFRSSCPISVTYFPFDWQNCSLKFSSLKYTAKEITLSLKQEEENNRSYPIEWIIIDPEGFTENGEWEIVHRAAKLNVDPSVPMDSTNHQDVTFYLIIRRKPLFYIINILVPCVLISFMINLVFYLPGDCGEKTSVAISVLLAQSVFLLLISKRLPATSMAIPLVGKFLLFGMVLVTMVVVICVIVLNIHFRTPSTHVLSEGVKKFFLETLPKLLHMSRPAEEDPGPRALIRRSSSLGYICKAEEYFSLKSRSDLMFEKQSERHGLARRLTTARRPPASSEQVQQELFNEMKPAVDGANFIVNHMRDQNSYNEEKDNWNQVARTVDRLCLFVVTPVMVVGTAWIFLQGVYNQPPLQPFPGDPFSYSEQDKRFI
T1 sequence (P04756 21-457): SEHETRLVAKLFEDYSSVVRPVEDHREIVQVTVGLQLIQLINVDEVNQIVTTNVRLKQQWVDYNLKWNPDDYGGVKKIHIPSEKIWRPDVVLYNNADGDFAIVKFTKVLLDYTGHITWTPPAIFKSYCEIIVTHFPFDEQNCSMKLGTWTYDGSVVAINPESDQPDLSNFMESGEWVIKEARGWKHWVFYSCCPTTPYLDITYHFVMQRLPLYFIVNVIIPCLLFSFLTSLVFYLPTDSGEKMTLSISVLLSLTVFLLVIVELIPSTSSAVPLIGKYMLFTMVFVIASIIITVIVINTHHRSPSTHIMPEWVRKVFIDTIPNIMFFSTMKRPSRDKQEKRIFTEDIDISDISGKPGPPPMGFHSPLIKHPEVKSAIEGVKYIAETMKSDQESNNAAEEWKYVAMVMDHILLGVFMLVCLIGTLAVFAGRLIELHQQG
T1 sequence (P20782 21-493): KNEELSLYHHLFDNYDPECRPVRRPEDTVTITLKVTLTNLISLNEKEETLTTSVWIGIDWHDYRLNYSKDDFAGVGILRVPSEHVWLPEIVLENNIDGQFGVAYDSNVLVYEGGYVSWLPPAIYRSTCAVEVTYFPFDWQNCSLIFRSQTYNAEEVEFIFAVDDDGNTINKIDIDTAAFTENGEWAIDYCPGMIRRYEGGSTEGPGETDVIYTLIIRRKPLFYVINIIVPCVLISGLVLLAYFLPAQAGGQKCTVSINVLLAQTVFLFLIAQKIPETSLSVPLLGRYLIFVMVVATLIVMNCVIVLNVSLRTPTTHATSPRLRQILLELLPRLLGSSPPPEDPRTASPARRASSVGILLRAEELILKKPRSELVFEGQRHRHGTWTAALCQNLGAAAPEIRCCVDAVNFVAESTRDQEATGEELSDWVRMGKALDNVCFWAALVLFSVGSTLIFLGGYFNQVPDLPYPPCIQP

[5] = system: mice injected with venoms; experiment: Recovery from neuroparalysis in mice injected with neurotoxic snake venoms; format: in vivo
Description: (§1) Abstract: Envenomation by snakes is a major neglected human disease even though it affects millions of people with sequelae and kills hundreds of thousands of them. A large toll is taken by snakes that inject neurotoxic venoms capable of inducing complete degeneration of motor axon terminals with rapid development of a peripheral neuroparalysis with severe respiratory deficit. The major venom component causing this degeneration are presynaptic acting PLA2s that hydrolyse phospholipids in lysophospholipids and fatty acids that induce large entry of Ca^2+ into the neuronal cytosol. This leads to the activation of endogenous hydrolases that cause a complete degeneration of the motor axon terminals, which is followed by a regeneration program, only partially known in molecular terms. We recently identified two types of membrane receptors involved in the regeneration of the paralysed neuromuscular junction (NMJ). Here we report that this paralysis activates a proregenerative molecular axis, consisting of the CXCR4 receptor expressed at the stump of degenerated motor axon terminals and by the release of its ligand CXCL12α by surrounding Schwann cells. […]

[6] = Description: as §1
CB1 receptors = target: T2, CB1 receptors (Homo sapiens, UniProt P21554); experiment: Two-electrode voltage-clamp, CB1-GIRK1/2-RGS4 system in Xenopus laevis oocytes; format: cell-based; conditions: GIRK1/2 currents induced by WIN55,212-2, Xenopus oocytes
T2 construct: expressed in transfected cells; host or cells: Xenopus laevis oocytes
T2 sequence (P21554 whole entry): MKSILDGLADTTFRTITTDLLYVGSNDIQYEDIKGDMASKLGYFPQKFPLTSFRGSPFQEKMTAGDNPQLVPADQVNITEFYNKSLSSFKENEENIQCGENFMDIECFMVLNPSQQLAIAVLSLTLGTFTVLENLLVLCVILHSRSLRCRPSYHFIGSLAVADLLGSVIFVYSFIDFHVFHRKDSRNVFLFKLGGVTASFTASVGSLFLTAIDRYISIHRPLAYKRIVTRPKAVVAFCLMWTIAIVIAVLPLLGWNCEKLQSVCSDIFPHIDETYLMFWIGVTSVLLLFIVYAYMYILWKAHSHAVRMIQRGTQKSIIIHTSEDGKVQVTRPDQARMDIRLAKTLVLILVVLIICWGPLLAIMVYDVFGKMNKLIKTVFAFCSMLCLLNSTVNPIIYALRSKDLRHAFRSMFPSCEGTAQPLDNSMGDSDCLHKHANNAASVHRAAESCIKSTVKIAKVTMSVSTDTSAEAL
Description: (§2) Abstract: Cannabinoid receptors (CB1 and CB2) are promising targets for diverse diseases, such as pain, inflammation, and neurological diseases. However, only a few ligands of CB receptors have reached clinical application so far. In the present study, we focused on the venom of Stephanoconus snails and found an endocannabinoid-like molecule, oleoyl serotonin (OS), active on CB1 and CB2. To determine the effects of OS, CB1 and CB2 receptors were functionally expressed in Xenopus laevis oocytes, together with the G protein-coupled inwardly rectifier potassium channels (GIRK1/2), and a regulator of G protein signalling (RGS4). Ion currents were measured with a two-electrode voltage-clamp system. […] To the best of our knowledge, OS is the first venom-derived ligand modulating CB receptors. […]. To investigate the critical domains of the CB receptor for OS activity, we constructed a chimeric CB1/2 receptor by replacing the transmembrane domain V (TMV)-intracellular loop 3 (ICL3)-TMVI domain (TMV-ICL3-TMVI) of the CB2 receptor with that of the CB1 receptor. […] This study highlights the potential of animal venom components as a promising library for the discovery of novel CB receptor ligands.

CB2 receptors = target: T3, CB2 receptors (Homo sapiens, UniProt P34972); experiment: Two-electrode voltage-clamp, CB2 with GIRK1/2 and RGS4 in Xenopus laevis oocytes; format: cell-based; conditions: GIRK1/2, RGS4
T3 construct: expressed in transfected cells; host or cells: Xenopus laevis oocytes
T3 sequence (P34972 whole entry): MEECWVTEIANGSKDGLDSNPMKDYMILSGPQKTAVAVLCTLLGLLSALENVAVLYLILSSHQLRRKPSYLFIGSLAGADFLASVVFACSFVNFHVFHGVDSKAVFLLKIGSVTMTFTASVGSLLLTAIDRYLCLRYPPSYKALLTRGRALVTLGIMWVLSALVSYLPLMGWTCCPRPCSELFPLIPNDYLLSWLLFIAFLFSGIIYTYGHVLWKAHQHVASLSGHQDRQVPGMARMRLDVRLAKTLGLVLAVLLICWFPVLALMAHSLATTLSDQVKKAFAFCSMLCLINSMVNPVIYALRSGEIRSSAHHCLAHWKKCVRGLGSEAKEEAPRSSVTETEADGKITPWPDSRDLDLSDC
Description: as §2

[7] = system: serotonin, histamine, opioid and nicotinic receptors, TRP channels or voltage-gated sodium, potassium or calcium channels; experiment: Selectivity of OS on other receptors and channels; format: cell-based
mice = experiment: In vivo evaluation of OS on brain-related neurological functions
human mitoTRPV1 = human mitoTRPV1 (Homo sapiens, UniProt Q8NER1); format: cell-based
Sequence of human mitoTRPV1 (Q8NER1 434-839): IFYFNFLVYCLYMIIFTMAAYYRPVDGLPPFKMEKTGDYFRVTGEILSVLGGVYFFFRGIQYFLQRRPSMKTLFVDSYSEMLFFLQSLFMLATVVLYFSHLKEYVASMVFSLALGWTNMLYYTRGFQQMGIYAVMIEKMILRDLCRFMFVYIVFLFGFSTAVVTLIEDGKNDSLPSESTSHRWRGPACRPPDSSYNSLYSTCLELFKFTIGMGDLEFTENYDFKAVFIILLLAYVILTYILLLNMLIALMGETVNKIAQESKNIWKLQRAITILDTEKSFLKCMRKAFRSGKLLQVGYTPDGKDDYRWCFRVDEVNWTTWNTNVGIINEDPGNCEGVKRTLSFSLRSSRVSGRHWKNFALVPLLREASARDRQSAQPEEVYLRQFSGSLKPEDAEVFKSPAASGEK

Compound: 5,6,11-trideoxyTTX
- cross-reactivity (cross-reactivity factors, CRFs) [1]: lower
- toxicity (toxicity equivalency factors, TEFs) [2]: lower

Compound: 5,11-dideoxyTTX
- cross-reactivity (cross-reactivity factors, CRFs) [1]: lower

Compound: Nc1ccncc1N [3,4-DAP, 3,4-Diaminopyridine]
- reversal of neuromuscular block caused by the CiTX [3]: completely reverses

Compound: CC1=C[C@@H](C2=C(C)[C@@H]3/C=C(\C)[C@@H](O)CC[C@@H]4C[C@@H](C)[C@@H](O4)/C(C)=C/CCC4=NCCC[C@@]43CC2)OC1=O [GYM-A]
- type of inhibition of α12βεδ nAChRs [4]: competitive and reversible inhibitors

Compound: CCCn1nc(C(=O)N2CCCCC2)c2c1CCC(NCCc1ccncc1)C2 (centres unmarked) [NUCC-390]
- time of recovery from neuroparalysis ([5]; determined by imaging, electrophysiological methods and lung ventilation): shortens the time of recovery from neuroparalysis
- efficacy in mice injected with venoms ([5]; venoms of three Bungarus species, Oxyuranus scutellatus, Micrurus nigrocinctus, Vipera ammodytes and V. aspis): very effective
- blood brain barrier crossing [6]: does not cross the blood brain barrier
- toxicity [6]: non-toxic

Compound: CCCCCCCC/C=C\CCCCCCCC(=O)NCCc1c[nH]c2ccc(O)cc12 [OS, oleoyl serotonin]
- mode of action on CB1 receptors (CB1 receptors): competitive antagonist
- mode of action on CB2 receptors (CB2 receptors): non-competitive blocker
- activity on other receptors and channels [7]: does not show significant activity
- effect on brain-related neurological functions (mice): anxiolytic effect

Compound: C=C1CCCC2=NC[C@H](C)[C@@H](C)C[C@@]23CCC(C(=O)O)=C[C@@H]3[C@@H]2O[C@]3(C[C@H]4CCC[C@@]5(CC[C@@]6(O[C@@H](CC[C@@]6(C)O)C1)O5)O4)C[C@@H](C)[C@@H](O)[C@H]2O3 [PnTX-A]
- type of inhibition of α12βεδ nAChRs [4]: competitive and reversible inhibitors

Compound: C=CC1=C[C@@H]2[C@@H]3O[C@]4(C[C@H]5CCC[C@@]6(CC[C@@]7(O[C@@H](CC[C@@]7(C)O)CC(=C)CCCC7=NC[C@H](C)[C@@H](C)C[C@@]72CC1)O6)O5)C[C@@H](C)[C@@H](O)[C@H]3O4 [PnTX-G]
- type of inhibition of α12βεδ nAChRs [4]: competitive and reversible inhibitors

Compound: C=C(C)[C@]12C[C@@H](C)[C@@]34O[C@](Cc5ccccc5)(O[C@@H]1[C@@H]3C=C(COC(=O)Cc1ccc(O)c(OC)c1)C[C@]1(O)C(=O)C(C)=C[C@@H]41)O2 [RTX, resiniferatoxin]
- mitochondrial Ca2+ efflux (human mitoTRPV1): enhanced a Ca^2+ efflux from the mitochondria
- mitochondrial temperature (human mitoTRPV1): significant reduction in the mitochondrial temperature
